Results: patent US5089479A, “Adhesion of Mycoplasma pneumoniae and Mycoplasma hominus to sulfatide” (priority 1988, dated 1992)
“Also recorded” adds a separate entry of the source. Structures can show the parent of a compound that is named as a salt.

Tests used:
M. pneumoniae [1] = experiment: Solid-phase binding of [3H]-M. pneumoniae to purified glycolipids immobilized in microtiter plates; parameters: species or system Mycoplasma pneumoniae strain M129; details: microtiter plate; up to 10 μg per well
Experimental: (§1) Virulent M. pneumoniae strain M129, passage 5-15, were grown and metabolically labelled with [^3 H]palmitic acid, 12-17 Ci/mole, as described by Chandler et al. in Infect. Immun. 37: 942, 1982. The organisms were passed four times through a 26 gauge needle and suspended to approximately 10^7 cpm/ml of degassed RPMI 1640 medium containing 1% bovine serum albumin and 25 mM HEPES, pH 7.3.
(§2) The binding of M. pneumoniae to purified glycolipids immobilized in microtiter plates was measured as described by Krivan et al. in Proc. Natl. Acad. Sci., op. cit. Purified glycolipids were serially diluted in 25 μl of methanol containing 0.1 μg each of the auxiliary lipids cholesterol and phosphatidylcholine. After the solutions were dried by evaporation, the wells were filled with TBS-BSA, emptied after one hour, rinsed with RPMI-BSA, and incubated with 25 μl of [^3 H]-M. pneumoniae, approximately 10^7 cpm/ml RPMI-BSA. After incubation for two hours at 37° C., unless otherwise stated, the wells were washed five times with saline and bound M. pneumoniae was quantified by scintillation counting in Aquasol. For inhibition studies, various polysaccharides were serially diluted in […] of [^3 H]-M. pneumoniae.
To obtain the results shown in FIG. 2, lipids in […] each of the auxiliary lipids cholesterol and phosphatidylcholine were evaporated in flat bottom wells of polyvinylchloride microtiter plates. The wells were blocked with 1% albumin for one hour, washed twice with RPMI-BSA, and incubated at 25° C. with 25 μl of [^3 H]-M. pneumoniae, approximately […]. After two hours, the wells were washed five times with saline, cut from the plate, and bound radioactivity was quantified in a scintillation counter. In control experiments, organisms were incubated with auxiliary lipids only to correct for nonspecific binding, typically <1% of the total radioactivity added. M. pneumoniae binding was determined in RPMI-BSA for sulfatide ( .circle. ), lactosylceramide, paragloboside, and cholesterol sulfate, ceramide trihexoside, globoside, GM1, GM2, or GM3 ( .largecircle.).
Binding of [^3 H]-M. pneumoniae was determined in RPMI-BSA for two hours at 4° C., 25° C. ( .circle. ), 37° C., and at 37° C. in BSA without RPMI (Δ).

M. pneumoniae [2] = experiment: Mycoplasma overlay assay: binding of [3H]-M. pneumoniae to glycolipids on thin layer chromatograms; parameters: species or system Mycoplasma pneumoniae strain M129; details: for Binding (ability to bind M. pneumoniae): Table I, class by amount of lipid bound; for binding of M. pneumoniae to glycolipid (in words): thin layer chromatogram overlay
Experimental: as §1
M. pneumoniae were bound to glycolipids separated on thin-layer chromatograms as described in detail for other bacteria by Krivan et al., Proc. Natl. Acad. Sci. 85: 6157-6161, 1988, and Krivan et al., Arch. Biochem. Biophys. 260:493-496, 1988. Briefly, glycolipids were separated by thin-layer chromatography on aluminum-backed silica gel high-performance plates developed with chlooform:methanol:0.25% CaCl2 in water (60:35:8). After chromatography, the plates were coated with 0.1% polyisobutylmethacrylate, soaked in 0.05 M Tris-HCl, pH 7.6, containing […] sodium chloride, 5 mM CaCl2, 0.2 mM phenylmethane-sulfonyl fluoride, and 1% bovine serum albumin (TBS-BSA) and incubated for three hours at 25° C. with 60 μl/cm^2 of [^3 H]-labelled M. pneumoniae, approximately 10^7 cpm/ml of RPMI-BSA. The plates were gently washed five times in 0.01 M sodium phosphate, pH 7.2, containing 0.15 M sodium chloride (PBS) to remove unbound organisms, dried, and exposed for 24 hours to Ultrofilm ^3 H (2208-190) high speed film.
To obtain the results shown in FIG. 1, glycolipids were chromatographed on aluminum-backed silica gel HPTLC plates developed in chloroform/methanol/0.25% CaCl2 in water, 60:35:8. The plates were coated with plastic, soaked in Tris-BSA, and incubated for three hours at 25° C. with [^3 H]-palmitate-labelled M. pneumoniae suspended in RPMI 1640 containing 1% BSA and 25 mM HEPES, pH 7.3, as described above (Panel A), or sprayed with orcinol reagent to identify glycolipids (Panel B). Lane a, acidic glycolipid standards sulfatide (0.5 μg), GM3 (2 μg), GM2 (2 μg), GD1a (2 μg), GD1b (2 μg), GT1b (2 μg); lane b, neutral standards galactosyl ceramide (4 μg), lactosylceramide (4 μg), globotriaosylceramide (2 μg), c2(0.5 μg). and c3 (o.1 μg); lane d, seminolipid (2 μg); lane e, cholesterol 3 -sulfate (2 μg); lane f, human trachea acidic glycolipids from 100 mg wet weight […]; lane h, α2-3sialylparagloboside (2 μg); lane 1, I-active monosialylganglioside from bovine erythrocytes (2 μg).

[3] = system: M. pneumoniae binding to sulfatide; experiment: Inhibition of M. pneumoniae binding to sulfatide adsorbed on plastic; parameters: species or system Mycoplasma pneumoniae strain M129; details: for inhibition of binding to sulfatide at 100 μg/ml (in words): sulfatide in microtiter plates
Experimental: as §1, §2
To obtain the results shown in FIG. 4, polysaccharides were serially diluted in 25 μl of RPMI-BSA in microtiter wells previously coated with 1 μg of purified sulfatide. Binding was determined after incubation of two hours at 37° C. with 25 μl of [^3 H]-M. pneumoniae with the indicated concentration of dextran ( .circle. ) or dextran sulfate.

M. pneumoniae [4] = experiment: M. pneumoniae adhesion to immobilized glycoproteins adsorbed on plastic; type: binding, Mycoplasma pneumoniae strain M129; details: for Relative binding activity: relative to fetuin = 1.0, from amount for half maximal binding, mean of 2 or 3 experiments; for M. pneumoniae adhesion to immobilized glycoprotein (in words): adsorbed on plastic; for amount of glycoprotein coated that promotes adhesion: coated wells
Experimental: Glycoproteins dissolved in 0.01 M sodium phosphate buffer, pH 7.4, containing 150 mM NaCl, 1 mM CaCl2, and 0.01% NaN3 were adsorbed onto plastic polyvinylchloride […] microtiter plates by incubation for 16 hours at 4° C. The unbound proteins were removed, and the wells were filled with tris-BSA and incubated for 30 minutes at room temperature. The wells were rinsed with RPMI1640 containing 25 mM HEPES, pH 7.3, and 1% bovine serum albumin. M. pneumoniae strain M129 labelled with [^3 H]-palmitate were dispersed in RPMI-BSA by passing four times through a 26 gauge needle, and 50 μl of the suspension was applied to the wells. After incubation for 60 minutes at 37° C., the wells were washed five times with saline and the labelled M. pneumoniae bound to the proteins were quantified by scintillation counting in Aquasol. […]

Row | Compound | Binding (ability to bind M. pneumoniae) (M. pneumoniae [2]) | binding of M. pneumoniae to glycolipid (in words) (M. pneumoniae [2]) | further results
1 | Paragloboside | + (2-4 μg) | weakly | binding of M. pneumoniae to immobilized lipid (in words) (M. pneumoniae [1]): bound weakly
2 | Lactoisooctaosylceramide [I-active Lacto- isooctaosylcer] | - (no binding to 4 μg of lipid) | – | –
3 | fucoidin | – | – | inhibition of binding to sulfatide at 100 μg/ml (in words) [3]: did not inhibit binding
4 | Lactosylceramide [Lactosylcer (CDH)] | ++ (0.5 to 2 μg) | weakly | binding of M. pneumoniae to immobilized lipid (in words) (M. pneumoniae [1]): bound weakly; binding of M. pneumoniae to glycolipid (in words) (M. pneumoniae [2]; listed as lactosylderamide): binds to high amounts
5 | Bovine serum Albumin: protein | – | – | Relative binding activity (M. pneumoniae [4]): < 0.01
6 | glucosylceramide [Glucosylcer (CMH)] | + (2-4 μg) | weakly | –
7 | Lacto-N-triaosylceramide [Lacto- --N-triaosylcer] | – | weakly | –
8 | IV^3 GalnLcOse4Cer [α-Galactosylparagloboside] | + (2-4 μg) | – | binding of M. pneumoniae to glycolipid (in words) (M. pneumoniae [2]; listed as o-galactosylparagloboside): weakly
9 | Galactosyl ceramide-I6-sulfate [Sulfatide Gal(6SO4)β11Cer] | +++ (positive binding to less than 0.5 μg) | – | binding of M. pneumoniae to glycolipid (in words) (M. pneumoniae [2]; listed as 6-sulfate isomer): does not discriminate between galactosyl ceramide I^3 -sulfate and its unnatural 6-sulfate isomer; binding of M. pneumoniae to glycolipid (in words) (M. pneumoniae [2]; listed as isomer of sulfatide in which the terminal sulfate is linked to the 6-position of): bound
10 | Lactosylceramide-II^3 -sulfate [Lactosylsulfatide] | +++ (positive binding to less than 0.5 μg) | – | binding of M. pneumoniae to glycolipid (in words) (M. pneumoniae [2]; listed as lactosyl sulfatide): bound; binding of M. pneumoniae to glycolipid (in words) (M. pneumoniae [2]; listed as lactosylsulfatide): bound strongly
11 | heparin | – | – | inhibition of binding to sulfatide at 100 μg/ml (in words) [3]: did not inhibit binding
12 | α-Ga121actoisooctaosylceramide [I-active Gal2 - lactoisooctaosylcer] | - (no binding to 4 μg of lipid) | – | –
13 | CC(C)CCC[C@@H](C)[C@H]1CC[C@H]2[C@@H]3CC=C4C[C@@H](OS(=O)(=O)O)CC[C@]4(C)[C@H]3CC[C@]12C [cholesterol sulfate, cholesterol 3 -sulfate] | – | does not bind | binding of M. pneumoniae to immobilized lipid (in words) (M. pneumoniae [1]): no binding was detected
14 | Human Transferrin: protein | – | – | M. pneumoniae adhesion to immobilized glycoprotein (in words) (M. pneumoniae [4]): no binding of M. pneumoniae was detected; Relative binding activity (M. pneumoniae [4]): < 0.01
15 | α2-3-sialyllactoneohexaosylceramide [Sialylneolacto-hexaoslycer] | - (no binding to 4 μg of lipid) | – | –
16 | IV^3 -[3'SO3 GlcA]- nLcOse4Cer [SO4 -Glucuronosylparagloboside] | - (no binding to 4 μg of lipid) | does not bind | –
17 | sialyllactofucopentaosyl-(III)-ceramide [Sialylneolactofucopenta-osylcer] | - (no binding to 4 μg of lipid) | – | –
18 | hyaluronate | – | – | inhibition of binding to sulfatide at 100 μg/ml (in words) [3]: did not inhibit binding
19 | α2-3-sialyl-paragloboside (NeuAc) [Sialylparagloboside] | - (no binding to 4 μg of lipid) | No binding was detected | –
20 | GD1^b | - (no binding to 4 μg of lipid) | No binding was detected | –
21 | dextran | – | – | inhibition of binding to sulfatide (in words) ([3]; sulfatide adsorbed on plastic): no effect
22 | Human platelet thrombospondin: adhesive glycoprotein | – | – | M. pneumoniae adhesion to immobilized glycoprotein (in words) (M. pneumoniae [4]): strongly promote adhesion; amount of glycoprotein coated that promotes adhesion (M. pneumoniae [4]): less than 10 ng; Relative binding activity (M. pneumoniae [4]): 0.7
23 | GT1b | - (no binding to 4 μg of lipid) | No binding was detected | –
24 | β-galactosylalkylacylglycerol-I^3 -sulfate [Seminolipid] | +++ (positive binding to less than 0.5 μg) | bound strongly; also recorded: bound | –
25 | Alpha2-3-sialylparagloboside (NeuGc) | - (no binding to 4 μg of lipid) | – | –
26 | Bovine Fetuin: major protein in fetal calf serum | – | – | M. pneumoniae adhesion to immobilized glycoprotein (in words) (M. pneumoniae [4]): promote dose-dependent and saturable adhesion; amount of glycoprotein coated that promotes adhesion (M. pneumoniae [4]): less than 10 ng; Relative binding activity (M. pneumoniae [4]): 1.0
27 | Asialo GM1 | - (no binding to 4 μg of lipid) | – | –
28 | colominic acid | – | – | inhibition of binding to sulfatide at 100 μg/ml (in words) [3]: did not inhibit binding
29 | GD1a | - (no binding to 4 μg of lipid) | No binding was detected | –
30 | chondroitin sulfate | – | – | inhibition of binding to sulfatide at 100 μg/ml (in words) [3]: did not inhibit binding
